# Values of other authors as cited in patent publication US6864048B2, “Factorial chemical libraries” (Affymetrix, Inc., priority 1993, dated 2005).
# Target: antibody
# Conditions: binding to the antibody; peptide identified by recursive retrosynthesis of a hexapeptide library
substance,measurement,value
DVPYDA,Kd,30 nM
